Legend:
Format in all cases: in vivo
Amaranthus retroflexus = assay: Test Example 5: herbicidal effect by foliage application, plastic box (symbol N); details: 320 g/ha, 3 weeks after application
Method in brief: (§1)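 Post-emergence spray; diluvial soil (sterilized), ~1.5 cm seed cover; greenhouse 25–30° C; 14-day-old plants; water-diluted emulsion at predetermined dose; visual score at 3 wk post-treatment.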

rapeseed = assay: Test Example 5: effect on crop by foliage application, plastic box (symbol g); details: 320 g/ha, 3 weeks after application
Method in brief: (§2)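 A greenhouse held between 25° C. and 30° C. was used to grow plants sown spot-wise, beneath ~1.5 cm of soil, in boxes of sterilized diluvial soil.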

[1] = system: directly sowed rice plant; assay: Test Example 3: effect on crop by foliage application, Wagner pot (symbol b); details: application herbicide amount 320 g/ha
Method in brief: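 Wagner pot (1/10000 are), alluvial soil, submerged 0.1–0.5 cm; sown E. crus-galli var. crus-galli, L. chinensis, C. difformis, rice; greenhouse 25–30 °C.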

Monochoria vaginalis [2] = assay: Test Example 2: herbicidal activity, application during weed generation in submerged conditions (symbol C); details: Table 23; application herbicide amount 320 g/ha; grade 0-5 by criteria of Test Example 1
Method in brief: (§3)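 Each pot contained alluvial soil under 4 cm of water with seeds of all three weeds sown together. Following growth at 25° C. to 30° C. to the one- to two-leaf stage, the floodwater received diluted emulsion at a predetermined amount; visual assessment followed at 3 weeks.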

Scirpus juncoides = assay: Test Example 1: herbicidal activity, application before weed generation in submerged conditions (symbol B); details: application herbicide amount 320 g/ha
Method in brief: (§4)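 Pre-emergence, paddy conditions: emulsifiable formulation diluted in water, dosed onto floodwater (4 cm depth) on sowing day. Alluvial soil; weeds sown mixed; rice transplanted at 2.5-leaf stage. Greenhouse 25–30 °C, 3 wk. Score 0–5 (5 = ≥90% kill, 0 = ≤5%).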

Monochoria vaginalis [3] = assay: Test Example 1: herbicidal activity, application before weed generation in submerged conditions (symbol C); details: application herbicide amount 320 g/ha
Method in brief: as §4

soybean = assay: Test Example 4: effect on crop by soil treatment (symbol d)
Method in brief: (§5)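 Diluvial soil (sterilized) in boxes; seeds placed spot-wise alongside weed species; ~1.5 cm covering soil. Greenhouse, 25–30° C.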

Avena fatua = assay: Test Example 5: herbicidal effect by foliage application, plastic box (symbol I); details: 320 g/ha, 3 weeks after application
Method in brief: as §1

Veronica persica = assay: Test Example 5: herbicidal effect by foliage application, plastic box (symbol R); details: 320 g/ha, 3 weeks after application
Method in brief: as §1

wheat [4] = assay: Test Example 4: effect on crop by soil treatment (symbol e)
Method in brief: as §5

Lolium multiflorum Lam. = assay: Test Example 4: herbicidal effect by soil treatment (symbol K)
Method in brief: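 Seeds were sown in sterilized diluvial soil, covered with about 1.5 cm of soil, and the soil surface was sprayed with a water-diluted emulsion of the compound at a predetermined rate. Plants grew in a greenhouse at 25° C. to 30° C.; effects were scored visually 3 weeks after application.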

wheat [5] = assay: Test Example 5: effect on crop by foliage application, plastic box (symbol e); details: 320 g/ha, 3 weeks after application
Method in brief: as §2

[6] = system: Echinochloa oryzacola Vasing.; assay: Test Example 2: herbicidal activity, application during weed generation in submerged conditions (symbol A); details: Table 23; application herbicide amount 320 g/ha; grade 0-5 by criteria of Test Example 1
Method in brief: as §3

beet = assay: Test Example 4: effect on crop by soil treatment (symbol f)
Method in brief: as §5

[7] = application herbicide amount 320 g/ha

| Structure (SMILES) | N: Amaranthus retroflexus, herbicidal effect grade (Amaranthus retroflexus) | g: rapeseed, effect on crop grade (rapeseed) | effect on crop b (directly sowed rice plant), grade 0-5 [1] | Herbicidal effect grade, C: Monochoria vaginalis (Monochoria vaginalis [2]) | Herbicidal effect grade, B: Scirpus juncoides (Scirpus juncoides) | Herbicidal effect grade, C: Monochoria vaginalis (Monochoria vaginalis [3]) | d: soybean, effect on crop grade (soybean; [7]) | I: Avena fatua, herbicidal effect grade (Avena fatua) | R: Veronica persica, herbicidal effect grade (Veronica persica) | e: wheat, effect on crop grade (wheat [4]; [7]) | K: Lolium multiflorum Lam., herbicidal effect grade (Lolium multiflorum Lam.; [7]) | e: wheat, effect on crop grade (wheat [5]) | Herbicidal effect grade, A: Echinochloa oryzacola Vasing. [6] | f: beet, effect on crop grade (beet; [7]) | further results |
| --- | --- | --- | --- | --- | --- | --- | --- | --- | --- | --- | --- | --- | --- | --- | --- |
| CON=C(C)C1CC(O)=C(c2c(C)cc(C)cc2C)C1=O (mixture of isomers) [3-002] | 0 (Herbicidal ratio of 5% or lower (almost no effect)) | 0 (Herbicidal ratio of 5% or lower (almost no effect)) | 0 (Herbicidal ratio of 5% or lower (almost no effect)) | 0 (Herbicidal ratio of 5% or lower (almost no effect)) | 0 (Herbicidal ratio of 5% or lower (almost no effect)) | 0 (Herbicidal ratio of 5% or lower (almost no effect)) | 0 (Herbicidal ratio of 5% or lower (almost no effect)) | 0 (Herbicidal ratio of 5% or lower (almost no effect)) | 0 (Herbicidal ratio of 5% or lower (almost no effect)) | 0 (Herbicidal ratio of 5% or lower (almost no effect)) | 0 (Herbicidal ratio of 5% or lower (almost no effect)) | 0 (Herbicidal ratio of 5% or lower (almost no effect)) | 0 (Herbicidal ratio of 5% or lower (almost no effect)) | 0 (Herbicidal ratio of 5% or lower (almost no effect)) |  |
| CON=C(C)CC1CC(OCC(=O)OC)=C(c2c(C)cc(C)cc2C)C1=O (stereo not drawn) [1-012] | 0 (Herbicidal ratio of 5% or lower (almost no effect)) | 0 (Herbicidal ratio of 5% or lower (almost no effect)) | 0 (Herbicidal ratio of 5% or lower (almost no effect)) | 0 (Herbicidal ratio of 5% or lower (almost no effect)) | 0 (Herbicidal ratio of 5% or lower (almost no effect)) | 0 (Herbicidal ratio of 5% or lower (almost no effect)) |  | 0 (Herbicidal ratio of 5% or lower (almost no effect)) | 0 (Herbicidal ratio of 5% or lower (almost no effect)) |  |  | 0 (Herbicidal ratio of 5% or lower (almost no effect)) | 0 (Herbicidal ratio of 5% or lower (almost no effect)) |  | d (soybean) effect on crop grade (soybean; [7]): 0 (Herbicidal ratio of 5% or lower (almost no effect)); e (wheat) effect on crop grade (wheat [4]; [7]): 0 (Herbicidal ratio of 5% or lower (almost no effect)); K (Lolium multiflorum Lam.) herbicidal effect grade (Lolium multiflorum Lam.; [7]): 0 (Herbicidal ratio of 5% or lower (almost no effect)); f (beet) effect on crop grade (beet; [7]): 0 (Herbicidal ratio of 5% or lower (almost no effect)) |
| CCOC(=O)C(C(=O)C(F)(F)F)C1CC(O)=C(c2c(C)cc(C)cc2C)C1=O (stereo not drawn) [2-010] | 0 (Herbicidal ratio of 5% or lower (almost no effect)) | 0 (Herbicidal ratio of 5% or lower (almost no effect)) | 1 (Herbicidal ratio of 5% or higher and lower than 20%) | 0 (Herbicidal ratio of 5% or lower (almost no effect)) | 0 (Herbicidal ratio of 5% or lower (almost no effect)) | 0 (Herbicidal ratio of 5% or lower (almost no effect)) | 0 (Herbicidal ratio of 5% or lower (almost no effect)) | 0 (Herbicidal ratio of 5% or lower (almost no effect)) | 0 (Herbicidal ratio of 5% or lower (almost no effect)) | 0 (Herbicidal ratio of 5% or lower (almost no effect)) | 0 (Herbicidal ratio of 5% or lower (almost no effect)) | 0 (Herbicidal ratio of 5% or lower (almost no effect)) | 0 (Herbicidal ratio of 5% or lower (almost no effect)) | 0 (Herbicidal ratio of 5% or lower (almost no effect)) |  |
| CON=C(C)CC1CC(O)=C(c2c(C)cc(C#CCO)cc2C)C1=O (mixture of isomers) [6-025] | 0 (Herbicidal ratio of 5% or lower (almost no effect)) | 3 (Herbicidal ratio of 40% or higher and lower than 70%) | 5 (Herbicidal ratio of 90% or more (almost completely withered)) | 0 (Herbicidal ratio of 5% or lower (almost no effect)) | 0 (Herbicidal ratio of 5% or lower (almost no effect)) | 0 (Herbicidal ratio of 5% or lower (almost no effect)) | 0 (Herbicidal ratio of 5% or lower (almost no effect)) | 5 (Herbicidal ratio of 90% or more (almost completely withered)) | 0 (Herbicidal ratio of 5% or lower (almost no effect)) | 0 (Herbicidal ratio of 5% or lower (almost no effect)) | 5 (Herbicidal ratio of 90% or more (almost completely withered)) | 1 (Herbicidal ratio of 5% or higher and lower than 20%) | 2 (Herbicidal ratio of 20% or higher and lower than 40%) | 0 (Herbicidal ratio of 5% or lower (almost no effect)) |  |
| CCC(C)C(=O)CC1CC(O)=C(c2c(C)cc(C)cc2C)C1=O (stereo not drawn) [2-024] | 0 (Herbicidal ratio of 5% or lower (almost no effect)) | 3 (Herbicidal ratio of 40% or higher and lower than 70%) | 5 (Herbicidal ratio of 90% or more (almost completely withered)) | 0 (Herbicidal ratio of 5% or lower (almost no effect)) | 0 (Herbicidal ratio of 5% or lower (almost no effect)) | 0 (Herbicidal ratio of 5% or lower (almost no effect)) | 0 (Herbicidal ratio of 5% or lower (almost no effect)) | 2 (Herbicidal ratio of 20% or higher and lower than 40%) | 2 (Herbicidal ratio of 20% or higher and lower than 40%) | 0 (Herbicidal ratio of 5% or lower (almost no effect)) | 0 (Herbicidal ratio of 5% or lower (almost no effect)) | 0 (Herbicidal ratio of 5% or lower (almost no effect)) | 1 (Herbicidal ratio of 5% or higher and lower than 20%) | 0 (Herbicidal ratio of 5% or lower (almost no effect)) |  |
| CON=C(C)CC1CC(OC(=O)N(C)c2ccccc2)=C(c2c(C)cc(C)cc2C)C1=O (stereo not drawn) [1-159] | 3 (Herbicidal ratio of 40% or higher and lower than 70%) | 4 (Herbicidal ratio of 70% or higher and lower than 90%) | 5 (Herbicidal ratio of 90% or more (almost completely withered)) | 3 (Herbicidal ratio of 40% or higher and lower than 70%) | 0 (Herbicidal ratio of 5% or lower (almost no effect)) | 0 (Herbicidal ratio of 5% or lower (almost no effect)) |  | 5 (Herbicidal ratio of 90% or more (almost completely withered)) | 0 (Herbicidal ratio of 5% or lower (almost no effect)) |  |  | 2 (Herbicidal ratio of 20% or higher and lower than 40%) | 4 (Herbicidal ratio of 70% or higher and lower than 90%) |  | d: soybean, effect grade on crop (soybean; 320 g/ha): 0 (Herbicidal ratio of 5% or lower (almost no effect)); e: wheat, effect grade on crop (wheat [4]; 320 g/ha): 1 (Herbicidal ratio of 5% or higher and lower than 20%); K: Lolium multiflorum Lam., herbicidal effect grade (Lolium multiflorum Lam.; 320 g/ha): 5 (Herbicidal ratio of 90% or more (almost completely withered)); f: beet, effect grade on crop (beet; 320 g/ha): 0 (Herbicidal ratio of 5% or lower (almost no effect)) |

From patent publication US11000033B2, “Ketone or oxime compound, and herbicide” (NISSAN CHEMICAL CORPORATION, priority 2014, dated 2021)
